From article PMC10141580, “Cyclic Dichalcogenides Extend the Reach of Bioreductive Prodrugs to Harness Thiol/Disulfide Oxidoreductases: Applications to seco-Duocarmycins Targeting the Thioredoxin System” (ACS Central Science, 2023)
Where two headings read alike, the source gives them in different places.

Experiments:
HeLa-HRE cells = assay: Resazurin cytotoxicity assay, HeLa-HRE, 48 h; conditions: for IC50: HeLa, 48 h, read-out: IC50(nM): HeLa; for IC50(HeLa)/IC50(A549): ratio HeLa vs A549
Description: (§1) We used A549 lung cancer and HeLa cervical cancer cell lines for initial screening of the prodrugs.
HeLa-HRE cells were treated with prodrugs of the
Dose -response curves were calculated from at least 27 incremental single concentrations over a
range of at least three log units.

A549 cells = assay: Resazurin cytotoxicity assay, A549, 72 h; conditions: read-out: IC50(nM): A549
Description: as §1
Fi gure S9: Cell ular resazurin-based cytotoxi ci ty as s a y.
Dose -response curves were calculated from at least 27 incremental single concentrations over a range
of at least three log units. Individual experiments with annotated experiment numbers are shown for each prodrug

mouse = assay: Tolerability for repeated dose administration in vivo (summary); conditions: repeated dose administration
Balb/c mice = assay: Moderate repeated dosing tolerability study; type: in vivo
Description: Next, a moderate repeated dosing study in Balb/c mice (3 animals per group) tested the importance of solubilizing the prodrugs.
Methods for in vivo animal studies
All in vivo studies were conducted as contract research together with React ionBiology Eur ope G mbH (Freiburg,
Germany), EPO – Experimental Pharmacology & Oncology GmbH (Berlin, Germany); Bient a/ Enam ine Lt d. (Kyiv,
Ukraine) and Leit at – Managing Technologies (Barcelona, Spain), adhering to the respective animal welfare
(§2) Mice were kept in individually ventilated cages at constant temperature (22±2 °C, air-conditioned) and humidity (45
(§3) – 65%), under optimum hygienic conditions with 10 – 15 air changes per hour. A cycle of 12 h artificial fluorescent
(§4) light ning and 12 h darkness was applied , and animal behavior was monitored daily throughout the studies. The
(§5) animals received food and water ad libit um.
To evaluate toxicity of selected compounds, dose level selection studies within dose range from 0.1 mg/kg to
10 mg/kg were performed by intravenous administration into Balb /c mice. Each dose for each tested compound
was administered in one mouse.
changes and clinical signs of gross toxicity three tim es per week for 21 consecutive days of post-dosing period.
After the first week of observation without adverse events, two doses for each test compound were selected as
tolerated. These two doses were tested in two additional mice for confirmation of toler ability. Additional animals
consecutive days of post-dosing period. Toxicity of repeated administrations was tested wit h t hr ee repeat ed pr e-
selected doses at a dosing interval of 7 days. Mortality, body weight changes, and clinical signs of gross toxicity
were monitored after each drug administration and three times per week for 21 consecutive days after the first
compound administration. Bleed ing with subsequent hematological tests, clinical chemistry parameters analysis
(ALT, AST, ALP, LDH, creatine kinase, creatinine, urea, cholesterol, and triglycerides), and necropsy with
macroscopic inspection were performed on the terminal day of the repeated dosing-regime.
To test tolerability of selected compounds in vivo, female BALB/c mice were randomized by weight into seven
groups of t hree animals.

[1] = In vivo plasma pharmacokinetics; conditions: Balb/c mice, i.v. 5 mg/kg
Description: We first examined the in vivo pharmacokinetics of representative compound SS60-CBI-AZI in Balb/c mice after i.v. administration at 5 mg/kg (3 animals per time point, 4 time points from 5 to 90 min post injection).
as §2, §3, §4, §5
Pharm acokinetics o f SS60-CBI-AZI
Following single dose intravenous administration, levels of SS60-CBI-AZI in blood plasm a over t im e wer e
det ermined by HPLC-MS/MS. Treatm ent gr oups wer e three Balb/c mice (randomly assigned ) per t ime point (t otal:
Blood collection was performed from the orbital sinus in
microtainers containing K 2EDTA. All samples were immediately processed, flash -frozen and stored at -70 °C unt il
400 ng/mL in et hanol). After mixing by pipetting and centrifuging for 4 min at 6000 rpm, 2 μL of each supernatant
was injected into LC-MS/MS (Shimadzu LC: 2 isocratic pumps LC-10ADvp, autosampler SIL-20AC, sub-controller
FCV-14AH, degasser DGU-14 A; AB Sciex MS: API 3000 ( tr iple-quadrupole), ESI). The data acquisition and system […]

[2] = system: NCI-60 standardized human tumor cell line panel; assay: cells; type: cell-based; conditions: AZI sheet, read-out: GI50
[3] = Cell-free HPLC reduction assay (GSH or TCEP challenge); conditions: 5 mM GSH (50 equiv), 24 h
Excerpt: These performance features had not been tested with naphthols, so we used HPLC to test them and show their reduction-based activation sequence (Figure 2c and Figures S4–S6).
In brief, treatment with the quantitative reductant TCEP triggered a reaction cascade matching the activation sequence we expected (Figure 2c): dichalcogenides are reduced to dichalcogenols that cyclize, giving the naphthol cargos (plus thiol trigger byproduct) that evolve to the activated cyclopropanes (Figure 5).
The mobile phase consists of eluent A: water (analytical
grade, 0.1% formic acid) and eluent B: MeCN (analytical grade, 0.1% formic acid).
using a gradient of 10% B t o 90% B over 10 min.
Reduction assay using TCEP and GSH
tris(2-carboxyethyl)phospine) (TCEP, 5 mM in TE-bu f f e r ) , or reduced glut at hione (GSH, 50 mM in TE-buf f er) or
else blank TE-buffer. Final concentrations: Prodrug (0.1 mM) , TCEP ( 0. 5 mM) , G SH ( 5 mM). The blank sample
was measured after 10 min (“pure”) and 24 h (“O H-“) to control for basic hydrolysis. The GSH sample was
measured after 24 h to control for monothiol-based reductive release. The TCEP sample was measured at several […]
extracted for each of the intermediate species and final r elease products. Peak areas were calculated relative to
the sum of all peak areas at 320 nm to quantify individual species at each timepoints. […]

## CN(C(=O)Oc1cc2c(c3ccccc13)[C@H](CCl)CN2C(=O)c1cc2cc(OCCCN3CCC3)ccc2[nH]1)[C@H]1CCSSC1 [SS60-CBI-AZI]
HeLa-HRE cells; Homo sapiens
  IC50: 96 nM
HeLa-HRE cells
  IC50(HeLa)/IC50(A549): 0.8
A549 cells; Homo sapiens
  IC50: 120 nM
mouse
  remarks: adverse effects
Balb/c mice; once weekly
  outcome of repeated dosing at 3 mg/kg: significant loss of body weight
Balb/c mice; treated twice a week
  outcome of repeated dosing at 1 mg/kg: tolerated
[1]
  released cargo in plasma: no released HO-CBI-AZI, or activated cyclopropane, or adducts, were detected
[1]; mouse, plasma, iv, HPLC-MS/MS
  half-life: ~20 min

## CN1CCN(C(=O)Oc2cc3c(c4ccccc24)C(CCl)CN3C(=O)c2cc3cc(OCCCN4CCC4)ccc3[nH]2)C2CSSCC21 (mixture of isomers) [Me-SS66T-CBI-AZI]
HeLa-HRE cells
  IC50(HeLa)/IC50(A549): 1.0
  IC50: 49 nM
A549 cells
  IC50: 51 nM
[2]; 786-0
  GI50: 13 nM
[2]; A498
  GI50: 15 nM
[2]; A549/ATCC
  GI50: 1.8 nM
[2]; ACHN
  GI50: 2.4 nM
[2]; BT-549
  GI50: 21 nM
[2]; CAKI-1
  GI50: 2.8 nM
[2]; CCRF-CEM
  GI50: 7.4 nM
[2]; COLO 205
  GI50: 15 nM
[2]; DU-145
  GI50: 3.9 nM
[2]; EKVX
  GI50: 12 nM
[2]; HCC-2998
  GI50: 3.5 nM
[2]; HCT-15
  GI50: 3.8 nM
[2]; HCT-116
  GI50: 6.8 nM
[2]; HL-60(TB)
  GI50: 9.9 nM
[2]; HOP-62
  GI50: 5.2 nM
[2]; HOP-92
  GI50: 18 nM
[2]; HT29
  GI50: 8.3 nM
[2]; IGROV1
  GI50: 17 nM
[2]; K-562
  GI50: 4.4 nM
[2]; KM12
  GI50: 16 nM
[2]; LOX IMVI
  GI50: 2.2 nM
[2]; M14
  GI50: 5.6 nM
[2]; MALME-3M
  GI50: 6.4 nM
[2]; MDA-MB-231
  GI50: 19.2 nM
[2]; MDA-MB-435
  GI50: 13 nM
[2]; MDA-MB-468
  GI50: 2.6 nM
[2]; MOLT-4
  GI50: 4.5 nM
[2]; NCI-H23
  GI50: 1.7 nM
[2]; NCI-H226
  GI50: 3.4 nM
[2]; NCI-H522
  GI50: 11 nM
[2]; OVCAR-3
  GI50: 27 nM
[2]; OVCAR-4
  GI50: 28 nM
[2]; OVCAR-5
  GI50: 6.9 nM
[2]; OVCAR-8
  GI50: 3.3 nM
[2]; PC-3
  GI50: 19.7 nM
[2]; RPMI-8226
  GI50: 23 nM
[2]; RXF 393
  GI50: 5.7 nM
[2]; SF-268
  GI50: 9 nM
[2]; SF-295
  GI50: 2.2 nM
[2]; SF-539
  GI50: 5.2 nM
[2]; SK-MEL-2
  GI50: 19 nM
[2]; SK-MEL-5
  GI50: 2.3 nM
[2]; SK-MEL-28
  GI50: 4.8 nM
[2]; SK-OV-3
  GI50: 15 nM
[2]; SN12C
  GI50: 10 nM
[2]; SNB-19
  GI50: 5.8 nM
[2]; SR
  GI50: 1.7 nM
[2]; SW-620
  GI50: 2.3 nM
[2]; T-47D
  GI50: 15 nM
[2]; TK-10
  GI50: 22 nM
[2]; U251
  GI50: 1.6 nM
[2]; UACC-62
  GI50: 2.2 nM
[2]; UACC-257
  GI50: 15 nM
[2]; UO-31
  GI50: 3.8 nM
[3]
  release/reduction on GSH challenge: partial reduction
